The results in this text go back to ChEMBL document CHEMBL1156989, “Discovery of novel small molecule orally bioavailable C-X-C chemokine receptor 4 antagonists that are potent inhibitors of T-tropic (X4) HIV-1 replication” (J Med Chem, 2010).

In data set [1] the test system is Human immunodeficiency virus 1. Description: Antiviral activity against HIV1 NL4.3 infected in human MT4 cells expressing CD4 and CXCR4 assessed as inhibition of virus-induced cytopathicity. The data set is classed as functional, organism-based. The conditions noted are these: Human immunodeficiency virus 1, NL4.3, MT4. For orientation: Damage to the host cells serves as the signal in cytopathic effect assays.

In data set [2] the test system is Human immunodeficiency virus 1. The experiment in a line: Antiviral activity against HIV1 3B infected in human MT-4 cells assessed as inhibition of virus-induced cytopathicity. Particulars: Human immunodeficiency virus 1, 3B.
The test system of data set [3] is Human immunodeficiency virus 1. Description: Antiviral activity against HIV1 NL4.3 infected in human PBMC assessed as inhibition of virus-induced cytopathicity. The data set is classed as functional, organism-based. The conditions noted are these: Human immunodeficiency virus 1, NL4.3.
In data set [4] the test system is Human immunodeficiency virus 1. Description: Ratio of IC90 for HIV1 NL4.3 infected in human PBMC to IC90 for HIV1 NL4.3 infected in human MT4 cells. In kind it is functional.
Data set [5] is described as follows: Cytotoxicity against human MT4 cells expressing CD4 and CXCR4 assessed as cell viability. The conditions noted are these: MT4 cells expressing CD4 and CXCR4.
The target of data set [6] is C-X-C chemokine receptor type 4 (Homo sapiens, UniProt P61073). The experiment in a line: Inhibition of anti-CXCR4 12G5 monoclonal antibody to CXCR4 in human SUP-T1 cells pretreated for 30 mins by flow cytometry. In kind it is cell-based.
Sequence of C-X-C chemokine receptor type 4 (P61073 whole entry): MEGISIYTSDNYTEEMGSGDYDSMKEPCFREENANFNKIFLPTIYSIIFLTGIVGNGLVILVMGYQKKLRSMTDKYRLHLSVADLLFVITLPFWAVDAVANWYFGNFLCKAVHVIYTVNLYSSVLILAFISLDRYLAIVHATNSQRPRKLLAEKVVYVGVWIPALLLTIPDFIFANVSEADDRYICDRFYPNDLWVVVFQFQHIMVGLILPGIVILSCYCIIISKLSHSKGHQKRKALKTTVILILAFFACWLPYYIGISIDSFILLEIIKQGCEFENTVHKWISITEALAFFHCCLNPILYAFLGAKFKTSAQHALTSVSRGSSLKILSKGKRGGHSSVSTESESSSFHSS
Data set [7] deals with Human immunodeficiency virus 1. The experiment in a line: Ratio of IC50 for HIV1 NL4.3 infected in human PBMC to IC50 for HIV1 NL4.3 infected in human MT4 cells. In kind it is functional.
Data set [8] in a line: Oral bioavailability in rat at 40 mg/kg. In kind it is ADME, organism-based. The conditions noted are these: in vivo.
Data set [9] in a line: Oral bioavailability in dog at 25 mg/kg. In kind it is ADME, organism-based, Canis lupus familiaris. Particulars: in vivo.
The subject of data set [10] is Human immunodeficiency virus 1. The experiment in a line: Antiviral activity against HIV1 3B infected in human MT4 cells assessed as inhibition of virus-induced cytopathicity in presence of 10% human serum. The data set is classed as functional, organism-based. Particulars: Human immunodeficiency virus 1, 3B.
Data set [11] deals with Human immunodeficiency virus 1. The experiment in a line: Antiviral activity against HIV1 NL4.3 infected in human MT4 cells assessed as inhibition of virus-induced cytopathicity in presence of 10% human serum. The data set is classed as functional, organism-based. Particulars: Human immunodeficiency virus 1, NL4.3, MT4.
Data set [12] has as its system Canis familiaris. Description: Volume of distribution in dog at 5 mg/kg, iv. The data set is classed as ADME, organism-based, Canis lupus familiaris. On the set-up: dose 5 mg/kg, route intravenous. Particulars: in vivo.
In data set [13] the target is C-C chemokine receptor type 5 (Homo sapiens, UniProt P51681). The experiment in a line: Displacement of radiolabeled MIP1beta from CCR5 receptor.
Sequence of C-C chemokine receptor type 5 (P51681 whole entry): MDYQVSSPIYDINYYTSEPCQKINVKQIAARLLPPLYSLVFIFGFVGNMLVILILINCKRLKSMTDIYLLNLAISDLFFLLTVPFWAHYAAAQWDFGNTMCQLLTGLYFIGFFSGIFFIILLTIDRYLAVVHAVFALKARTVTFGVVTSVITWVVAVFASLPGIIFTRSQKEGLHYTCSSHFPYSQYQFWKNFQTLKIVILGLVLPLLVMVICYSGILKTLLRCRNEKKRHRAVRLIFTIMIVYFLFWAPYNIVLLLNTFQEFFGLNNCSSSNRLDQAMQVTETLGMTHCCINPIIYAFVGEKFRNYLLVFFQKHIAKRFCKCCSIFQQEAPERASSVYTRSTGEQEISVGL
The target in data set [14] is T1, C-X-C chemokine receptor type 2 (Homo sapiens, UniProt P25025).
T1 sequence (P25025 whole entry): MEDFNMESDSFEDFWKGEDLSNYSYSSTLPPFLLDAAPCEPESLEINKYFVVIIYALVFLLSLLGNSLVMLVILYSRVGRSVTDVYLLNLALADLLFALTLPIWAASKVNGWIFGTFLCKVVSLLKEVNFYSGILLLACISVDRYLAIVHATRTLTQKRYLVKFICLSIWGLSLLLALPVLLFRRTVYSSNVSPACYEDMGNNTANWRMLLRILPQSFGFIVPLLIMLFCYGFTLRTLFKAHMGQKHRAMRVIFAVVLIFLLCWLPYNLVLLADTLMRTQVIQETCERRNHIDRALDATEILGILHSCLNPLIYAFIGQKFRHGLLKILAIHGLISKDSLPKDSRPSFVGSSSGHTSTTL
Description: Displacement of radiolabeled IL8 from CXCR2 receptor.

Data set [15] deals with T2, C-C chemokine receptor type 4 (Homo sapiens, UniProt P51679).
T2 sequence (P51679 whole entry): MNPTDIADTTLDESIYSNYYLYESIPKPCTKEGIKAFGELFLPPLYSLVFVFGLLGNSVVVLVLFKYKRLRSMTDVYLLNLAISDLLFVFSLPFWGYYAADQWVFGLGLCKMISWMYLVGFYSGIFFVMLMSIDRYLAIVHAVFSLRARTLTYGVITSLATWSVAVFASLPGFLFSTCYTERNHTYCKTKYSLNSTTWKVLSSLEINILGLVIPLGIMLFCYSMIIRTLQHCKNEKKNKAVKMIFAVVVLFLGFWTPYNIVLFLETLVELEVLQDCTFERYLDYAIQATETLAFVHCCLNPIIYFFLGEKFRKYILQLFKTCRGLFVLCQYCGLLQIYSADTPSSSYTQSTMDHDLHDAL
Description: Displacement of radiolabeled TARC from CCR4 receptor.

The target in data set [16] is T3, C-X-C chemokine receptor type 1 (Homo sapiens, UniProt P25024).
T3 sequence (P25024 whole entry): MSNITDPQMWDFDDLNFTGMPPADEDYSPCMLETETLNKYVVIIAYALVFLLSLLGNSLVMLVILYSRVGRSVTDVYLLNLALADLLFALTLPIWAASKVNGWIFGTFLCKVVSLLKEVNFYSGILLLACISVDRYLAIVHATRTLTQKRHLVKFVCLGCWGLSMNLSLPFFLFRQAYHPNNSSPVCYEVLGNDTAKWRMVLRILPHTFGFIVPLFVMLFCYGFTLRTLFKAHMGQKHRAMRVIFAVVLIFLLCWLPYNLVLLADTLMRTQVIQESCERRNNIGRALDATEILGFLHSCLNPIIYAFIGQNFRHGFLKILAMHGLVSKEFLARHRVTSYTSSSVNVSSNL
Description: Displacement of radiolabeled IL8 from CXCR1 receptor.

For data set [17], the target named is T4, C-C chemokine receptor type 1 (Homo sapiens, UniProt P32246).
T4 sequence (P32246 whole entry): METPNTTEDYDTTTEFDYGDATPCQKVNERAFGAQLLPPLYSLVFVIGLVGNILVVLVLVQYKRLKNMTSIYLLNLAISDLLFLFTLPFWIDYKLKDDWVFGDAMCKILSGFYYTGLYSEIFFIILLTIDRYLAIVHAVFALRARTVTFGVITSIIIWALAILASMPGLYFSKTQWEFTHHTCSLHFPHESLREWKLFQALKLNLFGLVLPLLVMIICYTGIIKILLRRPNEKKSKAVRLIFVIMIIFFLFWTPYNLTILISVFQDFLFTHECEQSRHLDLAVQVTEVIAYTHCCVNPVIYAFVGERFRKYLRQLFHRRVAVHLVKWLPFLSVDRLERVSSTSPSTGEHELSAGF
Description: Displacement of radiolabeled MIP1alpha from CCR1 receptor.

A short description of data set [18]: Cmax in dog. The data set is classed as ADME, organism-based, Canis lupus familiaris. Particulars: in vivo.
Data set [19] in a line: Cmax in rat. The conditions noted are these: in vivo. In kind it is ADME, organism-based.
Data set [20] has as its target C-C chemokine receptor type 2 (Homo sapiens, UniProt P41597). The experiment in a line: Displacement of radiolabeled MCP1 from CCR2b receptor.
The test system of data set [21] is Rattus norvegicus. Description: Half life in rat at 10 mg/kg, iv. The data set is classed as ADME, organism-based. On the set-up: dose 10 mg/kg, route intravenous. The conditions noted are these: in vivo.
For data set [22], the system named is Canis familiaris. Description: Half life in dog at 5 mg/kg, iv. The data set is classed as ADME, organism-based, Canis lupus familiaris. On the set-up: dose 5 mg/kg, route intravenous. The conditions noted are these: in vivo.
The subject of data set [23] is Rattus norvegicus. Description: Volume of distribution in rat at 10 mg/kg, iv. In kind it is ADME, organism-based. Set-up: dose 10 mg/kg, route intravenous. Particulars: in vivo.
In data set [24] the test system is Rattus norvegicus. Description: Half life in rat at 5 mg/kg, iv. Set-up: dose 5 mg/kg, route intravenous. Particulars: in vivo. The data set is classed as ADME, organism-based.
In data set [25] the test system is Rattus norvegicus. Description: Volume of distribution in rat at 5 mg/kg, iv. The data set is classed as ADME, organism-based. Set-up: dose 5 mg/kg, route intravenous. The conditions noted are these: in vivo.
Data set [26] is described as follows: Oral bioavailability in dog at 6 mg/kg. The data set is classed as ADME, organism-based, Canis lupus familiaris. The conditions noted are these: in vivo.
The nature of data set [27]: Oral bioavailability in rat at 100 mg/kg. In kind it is ADME, organism-based. The conditions noted are these: in vivo.

Sequence of C-C chemokine receptor type 2 (P41597 whole entry): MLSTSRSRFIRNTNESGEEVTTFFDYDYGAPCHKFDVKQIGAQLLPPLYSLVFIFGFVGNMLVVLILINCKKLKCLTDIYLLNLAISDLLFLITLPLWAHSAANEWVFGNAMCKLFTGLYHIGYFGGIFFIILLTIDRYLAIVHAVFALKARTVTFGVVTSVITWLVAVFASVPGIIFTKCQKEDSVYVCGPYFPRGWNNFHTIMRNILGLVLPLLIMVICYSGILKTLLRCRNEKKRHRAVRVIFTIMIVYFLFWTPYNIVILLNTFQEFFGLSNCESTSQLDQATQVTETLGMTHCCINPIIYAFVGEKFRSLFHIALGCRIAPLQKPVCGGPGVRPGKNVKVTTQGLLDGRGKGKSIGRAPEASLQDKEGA

Usually IC50 stands for the midpoint of a concentration-inhibition curve. Broadly, the CC50 is the concentration that lowers cell viability or growth by half. Turning to `c1ccc(CNCc2ccc(CN(Cc3nc4ccccc4[nH]3)C3CCCc4cccnc43)cc2)nc1` (stereo not drawn), the IC50 in [1] turned out to be 60 nM; in data set [2] it was 60 nM; in data set [3], 277 nM; in [6] it was 250 nM. Further, the Ratio in data set [4] turned out to be 4. Besides, in data set [5], the CC50 came out at 23000 nM. Further, the “Ratio IC50” value in data set [7] is 5.

The term bioavailability denotes the share of a dose that reaches the circulation, judged against a reference dose that is usually intravenous. As a reminder, the Vd is a proportionality between amount in the body and measured concentration, not a real space. Read a low Vd as confinement near the circulation. Usually IC90 stands for the point of the concentration-response curve where the effect stands at 90%. As usually defined, the Cmax is the highest concentration seen after dosing. On to `c1ccc(CNCc2ccc(CN(Cc3nc4ccccc4[nH]3)[C@H]3CCCc4cccnc43)cc2)nc1`, for which the IC50 in data set [1] is 30 nM; in data set [10] it was 81 nM; in [11] it was 69 nM; in [13], more than 10000 nM; in data set [14], more than 10000 nM; in data set [6], 120 nM. The IC50 in data set [15], in data set [16], in data set [17] and in [20] was more than 10000 nM each time. Moreover, the bioavailability in [8] turned out to be 48%; in [9] it was 55%. Besides, the Vd in the data set with Canis familiaris [12] was 17.5 L/kg; in the data set with Rattus norvegicus [23], 5.5 L/kg. In addition, the results for the concentration for an effect of 90% (IC90) in [2] and in data set [3] were 108 nM and 559 nM, respectively. For the same molecule, the Cmax in data set [18] came to 800 ng/mL; in [19], 4500 ng/mL. Further, the t1/2 in the data set with Rattus norvegicus [21] came to 2.9 h; in the data set with Canis familiaris [22], 5.7 h.

In the case of `NCCCCN(Cc1nc2ccccc2[nH]1)[C@H]1CCCc2cccnc21` [MAVORIXAFOR], the IC50 in [1] is 2 nM; in data set [11], 16 nM; in [13], more than 10000 nM; in [14], more than 10000 nM; in [3] it was 9 nM; in data set [15], more than 10000 nM. Also, the IC50 in data set [16], in data set [17] and in data set [20] was more than 10000 nM throughout. The molecule also returned a t1/2 in the data set on Rattus norvegicus [24] of 3.5 h. In addition, the IC90 in [3] worked out at 26 nM. The molecule also returned a Vd in the data set with Rattus norvegicus [25] of 14.3 L/kg. For the same molecule, the values for the bioavailability in data set [26] and in data set [27] were 80% and 22%, respectively. The Cmax in data set [18] is 1700 ng/mL; in data set [19] it was 1200 ng/mL.
